Test results from paper PMC8513058, “Synthesis and Evaluation of Novel 1,2,6-Thiadiazinone Kinase Inhibitors as Potent Inhibitors of Solid Tumors” (Molecules, 2021).
Read-outs that look alike come from different tables or passages of the source.

Columns and labels:
[1] = design: method as in PMID 29783765; conditions: previously assessed; cited from earlier work
PANC-1 cells [2] = assay: Cancer cell line viability screen (alamarBlue), PANC1; conditions: Homo sapiens, PANC-1, 72 h, read-out: IC50 PANC1
Method: (§1) This included pancreatic, bladder, prostate, breast, chordoma, and lung cancer cell lines while a skin fibroblast cell line was used as a toxicity control [33, 34, 35, 36].
(§2) DU145 and MCF-7 cells were cultured in MEM medium supplemented with 10% FBS and 1% penicillin/streptomycin. […] Cells were seeded in 384-well plates and were treated with test compound in quadruplicate 24 h after plating. Cell viability was assessed at 72 h using alamarBlue (ThermoFisher, Waltham, MA, USA). […] IC50 values were determined by nonlinear regression using GraphPad PrismTM software (GraphPad Software Inc., San Diego, CA, US).

DU145 cells [3] = assay: Cancer cell line viability screen (alamarBlue), DU145; conditions: Homo sapiens, DU-145, 72 h, read-out: IC50 DU145
Method: as §1, §2

[4] = tested on: kinases in SUM159 cell lysates; assay: MIBS kinome profiling (MIB-MS competitive displacement); format: binding; conditions: 1 μM compound vs DMSO, SUM159 lysate; for kinome profile: 350-400 kinases detected
Method: We then assessed the kinome profile of thiadiazinones 16, 17, and 26 all at 1 μM using a multiplexed kinase inhibitor bead set and quantitative mass spectrometry for detection of kinase peptides (MIB-MS). The MIB-MS proteomics was able to detect between 350 and 400 kinases in the cell lysates and competitive displacement of specific kinases from the beads was used to determine the kinome profile of the thiadiazinone kinase inhibitors.
Previously described. Briefly, multiplexed inhibitor beads (MIBS) affinity chromatography/MS analysis: SUM159 cells were cultured in a 50:50 mixture of DMEM and Nutrient Mixture F-12 medium (Gibco) supplemented with 5% fetal bovine serum, 1% anti/anti, […] insulin, and […] hydrocortisone. Cells were maintained at 37 °C in a humidified 5% CO2 atmosphere. SUM159 cells were grown to 80% confluency, washed twice with PBS, and harvested by scraping cells in lysis buffer [50 mM HEPES, pH 7.5, 150 mM NaCl, 0.5% Triton X-100, 1 mM EDTA, 1 mM EGTA, 10 mM NaF, 2.5 mM Na3VO4, complete protease inhibitor cocktail (Roche, Basel, Switzerland), phosphatase inhibitor cocktail 2, and 3 (Sigma, St. Louis, MO, USA)]. Lysates were sonicated then clarified by centrifugation at 14000 V g for 15 min at 4 °C. Lysate was then filtered through a […] syringe filter and frozen at −80 °C until use. Protein concentration was quantified using a Bradford assay the day of the experiment. DMSO or the indicated concentration of 16, 17, and 26 were added to lysate containing 4 mg of total protein. Lysates were vortexed briefly then incubated for 30 min on ice. Kinases were affinity purified as previously described. Briefly, lysates were diluted to 1.33 mg mL^−1 with lysis buffer then NaCl concentration brought to 1 M.
Diluted lysates were passed over a mixture of […] of settled beads of each of the following inhibitors conjugated to ECH Sepharose beads: Purvalanol B, PP58, VI-16832, UNC21474A, UNC8088A, and […] of settled beads conjugated to CTx-0294885 and VI-16832 [69]. The kinase inhibitor–bead conjugates were previously equilibrated in high-salt buffer (50 mM HEPES pH 7.5, 1M NaCl, 0.5% Triton X-100, 1 mM EDTA, and 1 mM EGTA). MIBs columns were sequentially washed with high-salt buffer, low-salt buffer (50 mm HEPES pH 7.5, 150 mM NaCl, 0.5% Triton X-100, 1 mM EDTA, and 1 mM EGTA), and SDS buffer (50 mm HEPES pH 7.5, 150 mm NaCl, 0.5% Triton X-100, 1 mm EDTA, 1 mm EGTA, and 0.1% SDS). Proteins were eluted by boiling samples in elution buffer (100 mM Tris·HCl pH 6.8, 0.5% SDS, and 1% β-mercaptoethanol) for 15 min twice. Dithiothreitol (DTT) was added to a final concentration of 5 mm and samples were incubated at 60 °C for 25 min. Samples were then cooled to room temperature on ice and alkylated by adding iodoacetamide to a final concentration of 20 mm for 30 min in the dark at room temperature. Samples were then concentrated in 10K Amicon Ultra centrifugal concentrators (Millipore, Burlington, MA, USA) followed by methanol and chloroform precipitation of proteins. The final protein pellets were re-suspended in 50 mM HEPES pH 8.0 and incubated with trypsin at 37 °C overnight. Residual detergent was removed by three sequential ethyl acetate extractions then desalted using Pierce C18 spin columns (Thermo Scientific, Waltham, MA, USA) according to the manufacturer’s protocol.

MCF-7 cells [5] = assay: Cancer cell line viability screen (alamarBlue), MCF7; conditions: Homo sapiens, MCF7, 72 h, read-out: IC50 MCF7
Method: as §1, §2

5637 cells [6] = assay: Cancer cell line viability screen (alamarBlue), 5637; conditions: for IC50: 72 h, read-out: IC50 5637
Method: as §1, §2

A-431 cells [7] = assay: Cancer cell line viability screen (alamarBlue), A431; conditions: Homo sapiens, A-431, 72 h, read-out: IC50 A431
Method: as §1
(§3) Cells were seeded in 384-well plates and were treated with test compound in quadruplicate 24 h after plating. Cell viability was assessed at 72 h using alamarBlue (ThermoFisher, Waltham, MA, USA). […] IC50 values were determined by nonlinear regression using GraphPad PrismTM software (GraphPad Software Inc., San Diego, CA, US).

U-CH1 cells = assay: Cancer cell line viability screen (alamarBlue), UCH1; conditions: UCH1, 72 h, read-out: IC50 UCH1
Method: as §1, §3

U-CH2 cells = assay: Cancer cell line viability screen (alamarBlue), UCH2; conditions: UCH2, 72 h, read-out: IC50 UCH2
Method: as §1, §3

WS-1 cell line [8] = assay: Toxicity control viability screen (alamarBlue), WS-1 skin fibroblasts; conditions: WS1, 72 h, read-out: IC50 WS-1
Method: as §1, §2

[9] = Chemical stability of thiadiazinones under aqueous, nucleophile, oxidizing and reducing conditions; format: physicochemical; conditions: tested similarly to 3,5-bis(phenylamino)-4H-1,2,6-thiadiazin-4-one: neutral, acidic, slightly basic aqueous, amine or thiol nucleophiles
Text: It is important to note that the stability of dianilinothiadiazinones in biological systems has previously been assessed.

DU145 cells [10] = tested on: DU145 cells; design: method as in PMID 28373427; conditions: positive control; cited from earlier work
MCF-7 cells [11] = conditions: read-out: IC50 MCF7, positive control; cited from earlier work
WS-1 cell line [12] = conditions: read-out: IC50 WS-1, positive control; cited from earlier work
A-431 cells [13] = conditions: read-out: IC50 A431, positive control; cited from earlier work
PANC-1 cells [14] = tested on: PANC-1 cells; design: method as in PMID 22487525; conditions: positive control; read-out: IC50 PANC1, positive control; cited from earlier work
5637 cells [15] = tested on: 5637 cells; design: method as in PMID 23887605; conditions: positive control; cited from earlier work

| IC50 (PANC-1 cells [2]) [µM] | IC50 (DU145 cells [3]) [µM] | IC50 (MCF-7 cells [5]) [µM] | IC50 (5637 cells [6]) [µM] | IC50 (A-431 cells [7]) [µM] | IC50 (U-CH1 cells) [µM] | IC50 (U-CH2 cells) [µM] | melting point | Compound | kinases competitively displaced from the beads (hits) [4] | kinome profile [4] | IC50 (WS-1 cell line [8]) [µM] | further results |
| --- | --- | --- | --- | --- | --- | --- | --- | --- | --- | --- | --- | --- |
| – | – | – | – | – | – | – | – | O=c1c(Nc2ccccc2)nsnc1Nc1ccccc1 [3,5-Bis(phenylamino)-4H-1,2,6-thiadiazin-4-one] | – | – | – | stability [1]: stable to neutral, acidic, or slightly basic aqueous conditions, the presence of amine or thiol nucleophiles, and oxidizing and reducing conditions |
| 33 | 41 | 18 | 1.6 | > 100 | 46 | > 100 | 326 to 327 °C | O=c1c(Nc2cccc(O)c2)nsnc1-c1ccnc2[nH]ccc12 [Compound 16, 3-[(3-Hydroxyphenyl)amino]-5-(1H-pyrrolo[2,3-b]pyridin-4-yl)-4H-1,2,6-thiadiazin-4-one] | weak interactions on MAP4K5, MAP4K3, PRKCD, and PKN1 just below the threshold | narrow spectrum kinome profile | > 100 | increase in potency on the bladder cancer cell line (5637 cells [6]; 16 relative to methoxy analogue 15): 10 fold; stability [9]: the same results |
| > 100 | 23 | 14 | 2.1 | > 100 | > 100 | > 100 | 292 to 293 °C | Cc1ccc(Nc2nsnc(-c3ccnc4[nH]ccc34)c2=O)cc1O [Compound 17, 3-[(3-Hydroxy-4-methylphenyl)amino]-5-(1H-pyrrolo[2,3-b]pyridin-4-yl)-4H-1,2,6-thiadiazin-4-one] | AKT2, MAP2K4, MAP2K1, and STK35 being just below the threshold | narrow spectrum kinome profile | > 100 | – |
| > 100 | 5.7 | 50 | 8.4 | > 100 | 84 | > 100 | 280 °C (dec.) | O=c1c(Nc2ccc3[nH]ncc3c2)nsnc1-c1ccnc(F)c1 [Compound 26, 5-(2-Fluoropyridin-4-yl)-3-[(1H-indazol-5-yl)amino]-4H-1,2,6-thiadiazin-4-one] | showing affinity for ACVR1B, ACVR2A, and STK35 | narrow spectrum kinome profile but was a weak inhibitor | > 100 | – |
| – | – | – | – | – | – | – | – | CC(=O)O[C@@]12CO[C@@H]1C[C@H](O)[C@@]1(C)C(=O)[C@H](O)C3=C(C)[C@@H](OC(=O)[C@H](O)[C@@H](NC(=O)OC(C)(C)C)c4ccccc4)C[C@@](O)([C@@H](OC(=O)c4ccccc4)[C@H]21)C3(C)C [docetaxel] | – | – | – | IC50 (DU145 cells [10]): 0.005 µM |
| – | – | – | – | – | – | – | – | CS(=O)(=O)CCNCc1ccc(-c2ccc3ncnc(Nc4ccc(OCc5cccc(F)c5)c(Cl)c4)c3c2)o1 [lapatinib] | – | – | – | IC50 (MCF-7 cells [11]): 6.3 µM; IC50 (WS-1 cell line [12]): 13 µM; IC50 (A-431 cells [13]): 0.1 µM |
| – | – | – | – | – | – | – | – | Cc1[nH]c2ccccc2c1CCNCc1ccc(/C=C/C(=O)NO)cc1 [panobinostat] | – | – | – | IC50 (PANC-1 cells [14]): 1 µM |
| – | – | – | – | – | – | – | – | Cc1ccc(Nc2nccc(N(C)c3ccc4c(C)n(C)nc4c3)n2)cc1S(N)(=O)=O [pazopanib] | – | – | – | IC50 (5637 cells [15]): 15 µM |
